Measured values as given in paper PMC3521961, “Molecular Basis for Recognition of Dilysine Trafficking Motifs by COPI” (Developmental Cell, 2012).
Residue numbers refer to the chain shown, from its start. “Also recorded” adds a separate entry of the source. Each block holds one molecule with its values, some of them ahead of it. No end group written: not given here.

Key:
[1] = test system: α-COP D96A D115A mutant (α1-327); assay: ITC with α1-327 D96A D115A mutant; format: binding, yeast; settings: 10°C, 300 mM NaCl
Experimental: (§1) ITC experiments were conducted on a Microcal VP-ITC machine (GE Healthcare) at 10°C. Molar peptide concentration in the syringe was ten times that of protein in the cell. β'-COP constructs were gel filtered into 50 mM HEPES (pH 7.4) and 100 mM NaCl, and α-COP constructs were gel filtered into 50 mM HEPES (pH 7.4) and 300 mM NaCl prior to runs. Titration data were analyzed in ORIGIN to obtain values for stoichiometry (N), equilibrium association constant (Ka), and enthalpy of binding. All experiments were carried out at least three times with appropriate standard deviations reported.
(§2) Figure S3, related to Figure 2. Model and in vitro data of α-COP 1-327 binding to a KKxx
(§3) motif. A homology model of residues 1-327 of yeast α-COP binding to the KKTN motif from
(§4) (1 picture or pasted object on this page, not shown here)
(§5) Homology model of the α-COP N-terminal propeller
(§6) Isothermal titration calorimetry

[2] = test system: α-COP R13A K15S R57S mutant (α1-327); assay: ITC with α1-327 R13A K15S R57S mutant; format: binding, yeast; settings: 10°C, 300 mM NaCl
Experimental: as §1, §2, §3, §4, §5, §6

[3] = test system: α-COP D229A E273A mutant (α1-327); assay: ITC with α1-327 D229A E273A mutant; format: binding, yeast; settings: 10°C, 300 mM NaCl
Experimental: as §1, §2, §3, §4, §5, §6

[4] = biological target: T1, yeast β'-COP 1-304 (N-terminal WD-repeat domain), wild-type (Saccharomyces cerevisiae, UniProt P41811); assay: ITC of dilysine motif peptides with wild-type β'1-304; format: binding; settings: for binding by ITC (in words): 10°C, 50 mM HEPES pH 7.4, 100 mM NaCl, at least three runs
T1 construct: GST (thrombin-cleavable) (C, cleaved yes); made in house; host or cells: E. coli BL21(DE3)pLysS
T1 sequence (P41811 1-304): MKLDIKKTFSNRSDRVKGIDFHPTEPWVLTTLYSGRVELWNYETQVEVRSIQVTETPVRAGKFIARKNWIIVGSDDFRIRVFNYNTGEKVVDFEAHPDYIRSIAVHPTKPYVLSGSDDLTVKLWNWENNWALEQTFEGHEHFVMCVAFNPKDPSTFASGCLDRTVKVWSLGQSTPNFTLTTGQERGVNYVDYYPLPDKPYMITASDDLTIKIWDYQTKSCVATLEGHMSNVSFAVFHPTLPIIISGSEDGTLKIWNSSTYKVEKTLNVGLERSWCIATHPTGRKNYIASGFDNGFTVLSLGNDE
Experimental: as §6
equilibrium association constant (Ka), and enthalpy of binding. All experiments were carried out
100 mM NaCl to mimic physiological salt conditions. Wild type yeast α-COP (α1-327) was gel
Immediately prior to a run, the protein was
mM NaCl than at 100 mM NaCl.
and ultraviolet absorbance (Agilent 1200 UV, Agilent Technologies). Samples of β’1-304 or 1-
the construct lacks the α-solenoid domain. […]

[5] = biological target: β'-COP D206A E248A mutant (β'1-304) (Saccharomyces cerevisiae, UniProt P41811, D206A/E248A); assay: biochemical
Sequence of β'-COP D206A E248A mutant (β'1-304) (P41811 1-304 D206A/E248A): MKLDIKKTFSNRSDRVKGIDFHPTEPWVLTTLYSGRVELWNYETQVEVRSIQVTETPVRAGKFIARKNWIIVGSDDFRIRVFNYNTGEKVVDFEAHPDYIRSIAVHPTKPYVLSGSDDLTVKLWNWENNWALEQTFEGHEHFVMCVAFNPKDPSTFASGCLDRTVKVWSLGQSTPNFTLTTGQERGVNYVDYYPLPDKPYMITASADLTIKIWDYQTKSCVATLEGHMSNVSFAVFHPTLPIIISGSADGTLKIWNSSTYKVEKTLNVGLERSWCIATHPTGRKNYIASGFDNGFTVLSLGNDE
Experimental: (§7) The β'-COP R15A K17A R59A mutant was designed to disrupt binding to the carboxy terminus of the motif, and the D206A E248A mutant was intended to disrupt binding to the -3 lysine.
as §1, §5, §6

[6] = biological target: β'-COP R15A K17A R59A mutant (β'1-304) (Saccharomyces cerevisiae, UniProt P41811, K17A/R15A/R59A); assay: biochemical
Sequence of β'-COP R15A K17A R59A mutant (β'1-304) (P41811 1-304 R15A/K17A/R59A): as the sequence (P41811 1-304 D206A/E248A) above, with R15A, K17A, R59A, A206D, A248E counted along it
Experimental: as §7, §1, §5, §6

[7] = biological target: β'-COP D98A D117A mutant (β'1-304) (Saccharomyces cerevisiae, UniProt P41811, D117A/D98A); assay: biochemical
Sequence of β'-COP D98A D117A mutant (β'1-304) (P41811 1-304 D98A/D117A): as the sequence (P41811 1-304 D206A/E248A) above, with D98A, D117A, A206D, A248E counted along it
Experimental: as §7, §1, §5, §6

[8] = biological target: T2, yeast β'-COP 1-304 (N-terminal WD-repeat domain), untagged (yeast (S. cerevisiae), UniProt P41811 1-304); assay: ITC; Microcal VP-ITC, 10°C; peptide in the syringe, protein in the cell; 50 mM Hepes pH 7.4, 100 mM NaCl; settings: both partners purified
T2 construct: source: E. coli BL21(DE3)pLysS, purified (glutathione sepharose, thrombin cleavage, S200 gel filtration); not shown: GST, C-terminal, cleaved
T2 sequence (looked up): T1 sequence (P41811 1-304)

[9] = biological target: T3, yeast α-COP 1-327 (N-terminal WD-repeat domain), wild type (yeast (S. cerevisiae), UniProt P53622 1-327); assay: ITC; Microcal VP-ITC, 10°C, 35 injections of 8 µL; peptide in the syringe at ten times the molar concentration of the protein in the cell; α-COP desalted into 20 mM Hepes pH 7.4, 300 mM NaCl (high salt required for stability); settings: both partners purified
T3 construct: α-COP (Ret1), yeast, residues 1-327, N-terminal WD-repeat domain; also called α1-327; Wild type A327; source: E. coli BL21(DE3)pLysS, purified (glutathione sepharose, thrombin cleavage, S200 gel filtration); not shown: GST, C-terminal, cleaved
T3 sequence (looked up): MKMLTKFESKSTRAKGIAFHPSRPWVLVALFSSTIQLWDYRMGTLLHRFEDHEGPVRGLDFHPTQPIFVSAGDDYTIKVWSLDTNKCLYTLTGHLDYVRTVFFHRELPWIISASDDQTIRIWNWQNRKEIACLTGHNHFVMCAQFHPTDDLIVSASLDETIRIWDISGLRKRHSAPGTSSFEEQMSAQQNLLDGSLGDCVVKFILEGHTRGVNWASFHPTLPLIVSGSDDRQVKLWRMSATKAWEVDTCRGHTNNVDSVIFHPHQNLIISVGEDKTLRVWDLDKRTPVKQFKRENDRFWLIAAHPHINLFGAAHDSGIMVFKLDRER

[10] = biological target: T4, yeast β'-COP 1-304 D206A E248A (yeast (S. cerevisiae), UniProt P41811 1-304, D206A | E248A); assay: ITC; Microcal VP-ITC, 10°C; peptide in the syringe at ten times the molar concentration of the β'-COP construct in the cell; 50 mM HEPES (pH 7.4), 100 mM NaCl; settings: both partners purified
T4 construct: constructs are in the Supplemental Experimental Procedures; also called D206A E248A mutant
T4 sequence (looked up): T1 sequence (P41811 1-304) with D206A, E248A

[11] = biological target: T5, yeast β'-COP 1-304 R15A K17A R59A (yeast (S. cerevisiae), UniProt P41811 1-304, R15A | K17A | R59A); assay: as above; settings: both partners purified
T5 construct: constructs are in the Supplemental Experimental Procedures; also called β'-COP R15A K17A R59A mutant
T5 sequence (looked up): T1 sequence (P41811 1-304) with R15A, K17A, R59A

[12] = biological target: T6, yeast β'-COP 1-304 (N-terminal WD-repeat domain), untagged, wild type (yeast (S. cerevisiae), UniProt P41811 1-304); assay: as above; settings: both partners purified
T6 construct: also called β'-COP N-terminal WD-repeat domain
T6 sequence (looked up): T1 sequence (P41811 1-304)

[13] = biological target: T7, yeast β'-COP 1-304 D98A D117A (yeast (S. cerevisiae), UniProt P41811 1-304, D98A | D117A); assay: as above; settings: both partners purified
T7 construct: constructs are in the Supplemental Experimental Procedures; also called D98A D117A mutant
T7 sequence (looked up): T1 sequence (P41811 1-304) with D98A, D117A

[14] = biological target: T6, yeast β'-COP 1-304 (N-terminal …); assay: crystal structure; β'1-304 (untagged) with CTFKKTN; details in the Supplemental Experimental Procedures; settings: both partners purified
[15] = biological target: T6, yeast β'-COP 1-304 (N-terminal …); assay: crystal structure; β'1-304 (10 mg/ml) with CTFKTKTN (30 mg/ml, mixed 1:10); 0.1 M HEPES (pH 7.5), 0.5 M ammonium sulfate, 30% v/v MPD; space group P6(1); settings: both partners purified
[16] = biological target: T8, yeast β'-COP 1-604 (both WD-repeat domains) (yeast (S. cerevisiae), UniProt P41811 1-604); assay: crystal structure; β'1-604 (10 mg/ml) with CTFKTKTN (30 mg/ml, mixed 1:10); 0.1 M bicine (pH 9.0), 10% MPD; space group P3(1), twinned; settings: both partners purified
T8 construct: constructs are in the Supplemental Experimental Procedures
T8 sequence (looked up): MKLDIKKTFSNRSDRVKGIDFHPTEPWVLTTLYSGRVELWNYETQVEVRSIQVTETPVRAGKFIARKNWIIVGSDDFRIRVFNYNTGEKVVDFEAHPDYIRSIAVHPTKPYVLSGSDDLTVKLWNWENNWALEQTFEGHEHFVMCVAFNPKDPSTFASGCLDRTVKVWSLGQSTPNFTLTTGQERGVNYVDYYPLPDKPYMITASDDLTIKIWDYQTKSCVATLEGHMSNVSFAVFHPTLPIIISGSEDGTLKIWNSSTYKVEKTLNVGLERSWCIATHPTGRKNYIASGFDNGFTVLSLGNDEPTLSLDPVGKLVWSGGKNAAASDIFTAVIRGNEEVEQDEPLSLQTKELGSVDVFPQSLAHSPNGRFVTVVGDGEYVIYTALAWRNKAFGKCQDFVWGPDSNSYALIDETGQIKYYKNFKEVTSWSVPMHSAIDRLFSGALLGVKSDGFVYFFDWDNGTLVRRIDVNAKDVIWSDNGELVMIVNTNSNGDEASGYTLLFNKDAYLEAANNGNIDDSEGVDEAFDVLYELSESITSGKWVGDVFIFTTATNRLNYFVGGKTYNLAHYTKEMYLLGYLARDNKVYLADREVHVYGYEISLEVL

binding by ITC (in words) [4]: no measurable binding
Molecule: KTKLL-CONH2 [amidated KTKLL peptide]

binding by ITC (in words) [4]: no measurable binding
Molecule: KTSLL [KTKLL motif variant lacking the -3 lysine]

binding by ITC (in words) [4]: no measurable binding
Molecule: RRVV [RRVV peptide from p24]

Kd [8]: 10 to 20 µM
B1: yeast Emp47 C-terminal KxKxx peptide RQEIIKTKLL (peptide)
peptide: RQEIIKTKLL
notes: also called KTKLL motif

Kd [9]: 81 µM
B2: KKTN motif peptide from yeast Wbp1 (as used in ITC) (peptide)
chain: CTFKKTN-OH

Kd [10]: < 300 µM | Kd [11]: < 300 µM | Kd [12]: 6.8 µM | Kd [13]: < 300 µM
B3: KxKxx motif peptide from wild-type yeast Emp47 (RQEIIKTKLL) (peptide)
peptide: RQEIIKTKLL
notes: also called KTKLL motif; source: peptide

binding result [14]: binds
B4: CTFKKTN peptide (KKxx motif derived from yeast Wbp1), used in crystallization (peptide)
peptide: CTFKKTN
notes: KKxx motif derived from the C terminus of yeast Wbp1; The N-terminal cysteine may not be a residue of Wbp1 (surmise); also called CTFKKTN motif; source: peptide

Further lines, the molecule ahead of its results:

Molecule: CTFKKTN-OH [KKTN]
binding by ITC (in words) [1]: no measurable binding | binding by ITC (in words) [2]: no measurable binding | binding by ITC (in words) [3]: no measurable binding

Molecule: KKLIE [KKLIE peptide from p23]
binding by ITC (in words) [4]: no measurable binding; also recorded: does not bind

Molecule: RQEIIKTKLL [KTKLL]
Kd [5]: < 300 µM | Kd [6]: < 300 µM | Kd [7]: < 300 µM | measured KD at 300 mM NaCl relative to 100 mM NaCl ([4]; ITC control runs in 300 mM NaCl compared to 100 mM NaCl): four- to five-fold weaker

B5: Emp47 KxKxx peptide without the -5 lysine (STKLL) (peptide)
chain: RQEIISTKLL-OH
Kd [12]: ~160 µM

B6: Wbp1 KKTN motif peptide used for ITC (peptide)
chain: CTFKKTN-OH
Kd [12]: ~85 µM

B7: CTFKTKTN peptide (KxKxx motif, synthetic peptide used in crystallization) (peptide)
peptide: CTFKTKTN
notes: synthetic KxKxx peptide used in crystallization; Looks like the Wbp1-derived CTFKKTN with a threonine between the two lysines; source: synthetic peptide
binding result [15]: binds | binding result [16]: binds
